Reference: US11542240B2, “STK19 inhibitors for treatment of cancer” (TRUSTEES OF BOSTON UNIVERSITY, priority 2018, dated 2023)
Read-outs that look alike come from different tables or passages of the source.

Columns and labels:
Assay in all cases: biochemical
Assay type in all cases: binding
[1] = molecular target: panel of 468 diverse kinases (Homo sapiens, UniProt O14730); settings: RIOK3; 1000 nM; read-out: Percent Control
[2] = molecular target: panel of 468 diverse kinases (Homo sapiens, UniProt O60331); settings: PIP5K1C; 1000 nM; read-out: Percent Control
[3] = molecular target: panel of 468 diverse kinases (Homo sapiens, UniProt O75716); settings: STK16; 1000 nM; read-out: Percent Control
Sequence of panel of 468 diverse kinases (Homo sapiens, UniProt O75716) (O75716 2-305 limits assumed): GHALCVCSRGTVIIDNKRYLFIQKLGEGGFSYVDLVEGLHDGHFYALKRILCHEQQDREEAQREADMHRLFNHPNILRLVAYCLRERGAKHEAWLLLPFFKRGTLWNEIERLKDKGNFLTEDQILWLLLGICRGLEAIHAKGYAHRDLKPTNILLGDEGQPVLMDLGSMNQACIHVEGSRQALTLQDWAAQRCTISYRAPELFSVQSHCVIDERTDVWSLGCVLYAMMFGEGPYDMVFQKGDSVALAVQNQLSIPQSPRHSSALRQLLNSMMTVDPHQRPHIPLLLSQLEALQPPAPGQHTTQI

[4] = molecular target: panel of 468 diverse kinases (Homo sapiens, UniProt P00519, H396P); settings: 1000 nM, read-out: Percent Control
[5] = molecular target: panel of 468 diverse kinases (Homo sapiens, UniProt P00533, L858R/T790M); settings: EGFR(L858R, T790M); 1000 nM; read-out: Percent Control
Sequence of panel of 468 diverse kinases (Homo sapiens, UniProt P00533, L858R/T790M) (P00533 25-1210 T790M/L858R limits assumed): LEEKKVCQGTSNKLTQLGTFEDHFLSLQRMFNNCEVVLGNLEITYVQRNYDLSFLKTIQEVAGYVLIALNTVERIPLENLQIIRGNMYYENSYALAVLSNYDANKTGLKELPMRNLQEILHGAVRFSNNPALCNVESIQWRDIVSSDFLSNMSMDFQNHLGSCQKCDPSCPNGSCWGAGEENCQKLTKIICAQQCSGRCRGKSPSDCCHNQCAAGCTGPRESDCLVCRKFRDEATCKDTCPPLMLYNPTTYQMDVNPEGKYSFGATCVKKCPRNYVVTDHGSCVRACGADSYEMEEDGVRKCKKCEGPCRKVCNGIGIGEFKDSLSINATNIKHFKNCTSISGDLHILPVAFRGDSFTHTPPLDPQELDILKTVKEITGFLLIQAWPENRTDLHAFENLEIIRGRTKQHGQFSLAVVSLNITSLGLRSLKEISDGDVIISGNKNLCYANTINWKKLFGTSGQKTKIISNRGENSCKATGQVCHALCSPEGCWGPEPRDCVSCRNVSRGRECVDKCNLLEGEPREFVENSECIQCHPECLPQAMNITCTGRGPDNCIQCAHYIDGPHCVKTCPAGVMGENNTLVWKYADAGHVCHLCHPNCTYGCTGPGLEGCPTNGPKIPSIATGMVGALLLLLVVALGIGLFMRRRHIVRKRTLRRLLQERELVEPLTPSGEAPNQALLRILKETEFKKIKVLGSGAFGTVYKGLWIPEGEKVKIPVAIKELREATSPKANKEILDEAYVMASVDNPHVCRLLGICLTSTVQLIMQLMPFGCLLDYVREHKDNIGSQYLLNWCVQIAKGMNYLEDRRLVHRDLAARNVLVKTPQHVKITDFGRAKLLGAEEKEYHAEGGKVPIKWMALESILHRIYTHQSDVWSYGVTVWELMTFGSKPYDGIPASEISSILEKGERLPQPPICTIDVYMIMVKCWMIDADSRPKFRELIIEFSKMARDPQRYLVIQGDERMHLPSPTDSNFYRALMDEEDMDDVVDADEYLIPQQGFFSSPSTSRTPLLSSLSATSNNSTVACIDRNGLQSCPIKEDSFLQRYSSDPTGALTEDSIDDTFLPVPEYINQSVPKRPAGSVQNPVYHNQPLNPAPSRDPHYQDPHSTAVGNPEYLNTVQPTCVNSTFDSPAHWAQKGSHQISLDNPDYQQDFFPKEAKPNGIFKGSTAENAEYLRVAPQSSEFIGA

[6] = molecular target: panel of 468 diverse kinases (Homo sapiens, UniProt P08581); settings: MET; 1000 nM; read-out: Percent Control
[7] = molecular target: panel of 468 diverse kinases (Homo sapiens, UniProt P10721, L576P); settings: KIT(L576P); 1000 nM; read-out: Percent Control
Sequence of panel of 468 diverse kinases (Homo sapiens, UniProt P10721, L576P) (P10721 26-976 L576P limits assumed): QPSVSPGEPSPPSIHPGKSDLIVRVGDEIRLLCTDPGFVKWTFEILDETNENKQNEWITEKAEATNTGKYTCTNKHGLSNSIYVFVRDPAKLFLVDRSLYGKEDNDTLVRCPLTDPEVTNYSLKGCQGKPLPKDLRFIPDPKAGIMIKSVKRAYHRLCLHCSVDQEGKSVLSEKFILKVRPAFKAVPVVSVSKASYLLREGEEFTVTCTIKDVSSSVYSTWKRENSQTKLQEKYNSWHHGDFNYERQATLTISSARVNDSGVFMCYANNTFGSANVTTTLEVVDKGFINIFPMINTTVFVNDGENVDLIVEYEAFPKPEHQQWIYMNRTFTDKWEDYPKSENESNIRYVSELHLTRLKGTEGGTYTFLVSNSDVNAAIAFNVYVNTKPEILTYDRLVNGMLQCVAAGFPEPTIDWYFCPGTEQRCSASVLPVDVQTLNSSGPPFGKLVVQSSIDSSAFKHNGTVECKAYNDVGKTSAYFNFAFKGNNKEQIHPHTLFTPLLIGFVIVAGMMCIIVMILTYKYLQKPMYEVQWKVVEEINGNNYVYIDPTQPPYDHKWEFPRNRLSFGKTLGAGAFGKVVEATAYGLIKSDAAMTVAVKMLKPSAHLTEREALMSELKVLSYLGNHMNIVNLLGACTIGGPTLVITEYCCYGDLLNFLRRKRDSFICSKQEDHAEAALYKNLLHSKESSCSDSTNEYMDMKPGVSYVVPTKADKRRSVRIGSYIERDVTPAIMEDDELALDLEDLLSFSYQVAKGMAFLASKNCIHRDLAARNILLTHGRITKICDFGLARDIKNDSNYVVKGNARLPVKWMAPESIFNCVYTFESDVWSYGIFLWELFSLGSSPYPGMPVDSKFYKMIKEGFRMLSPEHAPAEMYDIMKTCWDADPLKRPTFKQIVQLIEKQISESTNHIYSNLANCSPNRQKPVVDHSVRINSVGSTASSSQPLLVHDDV

[8] = molecular target: panel of 468 diverse kinases (Homo sapiens, UniProt P12931); settings: SRC; 1000 nM; read-out: Percent Control
Sequence of panel of 468 diverse kinases (Homo sapiens, UniProt P12931) (P12931 2-536 limits assumed): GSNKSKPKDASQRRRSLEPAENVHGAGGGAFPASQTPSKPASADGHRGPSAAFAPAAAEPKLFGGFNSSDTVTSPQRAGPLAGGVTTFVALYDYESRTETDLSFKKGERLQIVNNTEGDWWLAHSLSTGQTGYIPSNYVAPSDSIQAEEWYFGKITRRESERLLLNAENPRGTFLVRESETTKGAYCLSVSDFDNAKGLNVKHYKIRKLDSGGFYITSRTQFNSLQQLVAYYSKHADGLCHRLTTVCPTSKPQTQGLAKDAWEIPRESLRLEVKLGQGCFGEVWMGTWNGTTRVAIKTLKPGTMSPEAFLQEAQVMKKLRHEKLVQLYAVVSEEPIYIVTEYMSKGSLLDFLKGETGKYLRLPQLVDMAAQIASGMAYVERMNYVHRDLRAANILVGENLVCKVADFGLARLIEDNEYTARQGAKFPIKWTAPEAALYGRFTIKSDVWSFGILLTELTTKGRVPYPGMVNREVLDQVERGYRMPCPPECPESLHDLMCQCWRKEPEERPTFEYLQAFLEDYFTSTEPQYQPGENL

[9] = molecular target: panel of 468 diverse kinases (Homo sapiens, UniProt P15735); settings: PHKG2; 1000 nM; read-out: Percent Control
[10] = molecular target: panel of 468 diverse kinases (Homo sapiens, UniProt P42338); settings: PIK3CB; 1000 nM; read-out: Percent Control
[11] = molecular target: panel of 468 diverse kinases (Homo sapiens, UniProt P49761); settings: CLK3; 1000 nM; read-out: Percent Control
[12] = molecular target: panel of 468 diverse kinases (Homo sapiens, UniProt P51956); settings: NEK3; 1000 nM; read-out: Percent Control
[13] = molecular target: panel of 468 diverse kinases (Homo sapiens, UniProt P53667); settings: LIMK1; 1000 nM; read-out: Percent Control
[14] = molecular target: panel of 468 diverse kinases (Homo sapiens, UniProt Q05397); settings: FAK; 1000 nM; read-out: Percent Control
[15] = molecular target: panel of 468 diverse kinases (Homo sapiens, UniProt Q06187); settings: BTK; 1000 nM; read-out: Percent Control
[16] = molecular target: panel of 468 diverse kinases (Homo sapiens, UniProt Q13153); settings: PAK1; 1000 nM; read-out: Percent Control
[17] = molecular target: panel of 468 diverse kinases (Homo sapiens, UniProt Q13237); settings: PRKG2; 1000 nM; read-out: Percent Control
Sequence of panel of 468 diverse kinases (Homo sapiens, UniProt Q13237) (Q13237 2-762 limits assumed): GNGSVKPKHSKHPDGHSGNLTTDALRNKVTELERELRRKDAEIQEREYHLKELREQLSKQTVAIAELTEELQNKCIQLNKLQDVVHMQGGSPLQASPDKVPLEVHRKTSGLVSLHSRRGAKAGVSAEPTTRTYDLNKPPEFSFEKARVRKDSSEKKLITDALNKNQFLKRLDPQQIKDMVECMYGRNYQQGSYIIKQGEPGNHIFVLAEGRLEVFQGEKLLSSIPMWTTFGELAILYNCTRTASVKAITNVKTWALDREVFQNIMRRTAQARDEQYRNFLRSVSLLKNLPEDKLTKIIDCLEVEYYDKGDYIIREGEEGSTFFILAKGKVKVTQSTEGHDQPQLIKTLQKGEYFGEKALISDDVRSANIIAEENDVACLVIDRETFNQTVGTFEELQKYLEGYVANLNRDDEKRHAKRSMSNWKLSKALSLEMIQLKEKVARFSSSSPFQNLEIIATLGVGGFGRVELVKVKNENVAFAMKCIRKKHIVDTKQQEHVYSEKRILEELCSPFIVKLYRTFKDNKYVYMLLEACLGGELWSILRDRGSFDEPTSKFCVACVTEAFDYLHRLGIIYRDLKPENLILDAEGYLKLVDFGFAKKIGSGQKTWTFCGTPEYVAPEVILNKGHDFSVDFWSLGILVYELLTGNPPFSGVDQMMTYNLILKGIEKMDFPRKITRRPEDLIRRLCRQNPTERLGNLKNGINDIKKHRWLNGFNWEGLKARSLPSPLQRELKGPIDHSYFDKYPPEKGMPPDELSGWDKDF

[18] = molecular target: panel of 468 diverse kinases (Homo sapiens, UniProt Q13705); settings: ACVR2B; 1000 nM; read-out: Percent Control
Sequence of panel of 468 diverse kinases (Homo sapiens, UniProt Q13705) (Q13705 19-512 limits assumed): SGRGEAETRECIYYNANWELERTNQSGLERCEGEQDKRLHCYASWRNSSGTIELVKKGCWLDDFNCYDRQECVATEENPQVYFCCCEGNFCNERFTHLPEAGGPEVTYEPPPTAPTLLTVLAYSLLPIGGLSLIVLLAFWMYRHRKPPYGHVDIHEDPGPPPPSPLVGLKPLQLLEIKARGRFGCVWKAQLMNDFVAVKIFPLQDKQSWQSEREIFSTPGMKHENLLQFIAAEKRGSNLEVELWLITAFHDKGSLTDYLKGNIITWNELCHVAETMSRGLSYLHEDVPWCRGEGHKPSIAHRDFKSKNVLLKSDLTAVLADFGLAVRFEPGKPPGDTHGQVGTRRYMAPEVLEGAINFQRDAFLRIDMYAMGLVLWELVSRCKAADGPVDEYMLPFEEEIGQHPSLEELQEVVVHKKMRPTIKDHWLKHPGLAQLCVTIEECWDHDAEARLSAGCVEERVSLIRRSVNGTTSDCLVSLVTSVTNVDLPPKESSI

[19] = molecular target: panel of 468 diverse kinases (Homo sapiens, UniProt Q14164); settings: IKK-epsilon; 1000 nM; read-out: Percent Control
[20] = molecular target: panel of 468 diverse kinases (Homo sapiens, UniProt Q15139); settings: PRKD1; 1000 nM; read-out: Percent Control
[21] = molecular target: panel of 468 diverse kinases (Homo sapiens, UniProt Q15349); settings: 1000 nM, read-out: Percent Control
[22] = molecular target: panel of 468 diverse kinases (Homo sapiens, UniProt Q16620); settings: TRKB; 1000 nM; read-out: Percent Control
Sequence of panel of 468 diverse kinases (Homo sapiens, UniProt Q16620) (Q16620 32-822 limits assumed): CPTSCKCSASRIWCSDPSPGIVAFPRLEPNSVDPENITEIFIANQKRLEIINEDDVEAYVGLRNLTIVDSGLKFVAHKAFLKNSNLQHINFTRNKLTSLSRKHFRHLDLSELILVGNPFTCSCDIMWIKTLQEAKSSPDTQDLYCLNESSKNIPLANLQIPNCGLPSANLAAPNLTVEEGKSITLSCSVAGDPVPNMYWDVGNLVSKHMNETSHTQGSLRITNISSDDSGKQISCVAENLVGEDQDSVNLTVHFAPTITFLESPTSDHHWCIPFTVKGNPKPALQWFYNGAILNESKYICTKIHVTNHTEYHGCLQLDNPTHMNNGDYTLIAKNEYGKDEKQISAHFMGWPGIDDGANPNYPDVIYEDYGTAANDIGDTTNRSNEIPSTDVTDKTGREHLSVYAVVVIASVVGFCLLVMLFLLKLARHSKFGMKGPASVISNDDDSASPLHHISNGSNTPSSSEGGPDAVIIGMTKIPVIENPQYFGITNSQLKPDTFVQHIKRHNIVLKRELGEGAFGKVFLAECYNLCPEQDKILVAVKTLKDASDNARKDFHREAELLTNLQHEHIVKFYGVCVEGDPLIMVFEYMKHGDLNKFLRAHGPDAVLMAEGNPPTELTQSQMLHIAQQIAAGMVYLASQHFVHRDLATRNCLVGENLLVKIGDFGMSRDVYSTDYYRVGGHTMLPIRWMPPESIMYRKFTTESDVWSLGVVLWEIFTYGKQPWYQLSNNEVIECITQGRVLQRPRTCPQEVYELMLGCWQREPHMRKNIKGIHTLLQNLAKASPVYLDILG

[23] = molecular target: panel of 468 diverse kinases (Homo sapiens, UniProt Q86UE8); settings: TLK2; 1000 nM; read-out: Percent Control
[24] = molecular target: panel of 468 diverse kinases (Homo sapiens, UniProt Q8TD19); settings: NEK9; 1000 nM; read-out: Percent Control
[25] = molecular target: panel of 468 diverse kinases (Homo sapiens, UniProt Q99683); settings: ASK1; 1000 nM; read-out: Percent Control
[26] = molecular target: panel of 468 diverse kinases (Homo sapiens, UniProt Q9C098); settings: DCAMKL3; 1000 nM; read-out: Percent Control
[27] = molecular target: panel of 468 diverse kinases (Homo sapiens, UniProt Q9H4B4); settings: PLK3; 1000 nM; read-out: Percent Control
[28] = molecular target: panel of 468 diverse kinases (Homo sapiens, UniProt Q9NRH2); settings: SNRK; 1000 nM; read-out: Percent Control
[29] = molecular target: panel of 468 diverse kinases (Homo sapiens, UniProt Q9P0L2); settings: MARK1; 1000 nM; read-out: Percent Control
[30] = molecular target: panel of 468 diverse kinases (Homo sapiens, UniProt Q9Y2U5); settings: MAP3K2; 1000 nM; read-out: Percent Control

COc1cc2nc(NC3CC3)nc(NC3CCN(C(C)C)CC3)c2cc1OC [Formula IV]
remaining activity at 1 µM [1]: 100% | remaining activity at 1 µM [2]: 100% | remaining activity at 1 µM [3]: 83% | remaining activity at 1 µM ([4]; ABL1 (H396P)-nonphosphorylated): 69% | remaining activity at 1 µM ([4]; ABL1(H396P)-phosphorylated): 68% | remaining activity at 1 µM [5]: 35% | remaining activity at 1 µM [6]: 96% | remaining activity at 1 µM [7]: 100% | remaining activity at 1 µM [8]: 97% | remaining activity at 1 µM [9]: 83% | remaining activity at 1 µM [10]: 71% | remaining activity at 1 µM [11]: 91% | remaining activity at 1 µM [12]: 50% | remaining activity at 1 µM [13]: 100% | remaining activity at 1 µM [14]: 88% | remaining activity at 1 µM [15]: 89% | remaining activity at 1 µM [16]: 87% | remaining activity at 1 µM [17]: 88% | remaining activity at 1 µM [18]: 76% | remaining activity at 1 µM [19]: 84% | remaining activity at 1 µM [20]: 100% | remaining activity at 1 µM ([21]; RSK3(Kin.Dom.1-N-terminal)): 93% | remaining activity at 1 µM ([21]; RSK3(Kin.Dom.2-C-terminal)): 81% | remaining activity at 1 µM [22]: 48% | remaining activity at 1 µM [23]: 100% | remaining activity at 1 µM [24]: 83% | remaining activity at 1 µM [25]: 75% | remaining activity at 1 µM [26]: 92% | remaining activity at 1 µM [27]: 68% | remaining activity at 1 µM [28]: 78% | remaining activity at 1 µM [29]: 92% | remaining activity at 1 µM [30]: 65%
